# Reference: patent US8470381B2, “Spinosyn antifouling compositions, methods of use thereof and articles protected from attachment of biofouling organisms” (Entarco S.A., priority 2008, dated 2013)
# “And” between values parts separate entries of the source, which are not always exact repeats. Equal values may be shown once. “Also recorded” adds a separate entry of the source.
# Legend:
# [1] = test system: Dunaliella tertiolecta; test: Inhibition of the growth of the fouling microalgae in flask culture; format: cell-based; conditions: 10-^2 to 10^−9 mg spinosad/ml; cells counted each day
# Description: A water emulsion containing 23.2% w/w Tracer®=10% spinosad was used at the start of this assay. Dunaliella tertiolecta was maintained in stock cultures in 20 ml test tubes as seed cultures and maintained on seven day transfer cycle. The marine micro-algae were inoculated into 250 ml conical flasks containing 100 ml of filtered, sterilized seawater in F/2-Guillard-1975 growth medium. The initial 10% spinosad emulsion (coded Entarco 8205 10%), was further dissolved in distilled water and added at various concentrations to each algal culture for final concentrations ranging from 10-^2 mg spinosad/ml to 10^−9 mg spinosad/ml. Controls consisted of algal culture without the test solution. Each test group was comprised of 3 flasks.
# The typical culture goes through four phases. Lag phase is characterized by little or no multiplication of the cells. Log phase or exponential phase is when there is a rapid increase in the rate of cell division. During the next phase, called stationary phase, the number of living cells remain constant and there is no further growth. […] The growth of the algal cells in each flask was counted each day by haemocytometer. The entire growth and decline of the culture in the presence or absence of spinosad was determined (Targett, 1988 Allelochemistry in marine organisms: Chemical fouling and antifouling strategies).
# [2] = test system: Vibrio sp (V); test: Agar diffusion antimicrobial assay against marine bacteria associated with Balanus amphitrite; format: cell-based; conditions: 24 hours
# Description: (§1) The effect of spinosad as a bacteriostatic compound was tested against four bacterial species using standard agar diffusion techniques, as described by Avelin et al., J. Chem. Ecol., 19(10), 2155-67 (1993). The bacteria used in the test were as follows: Aeromonas sp (Ae); Alcaligenes sp (Al); Flavobacterium sp (F); and Vibrio sp (V);
# (§2) The agar diffusion technique follows the original method by Acar (1980). In a sterilized petri dish 1 ml of 12 hour old nutrient broth culture, comprising of 3.7% of marine broth in distilled water, of each marine bacterial species was transferred along with 20 ml of antibiotic agar medium.
# (§3) Sterilized Whatman No. 1 paper discs (6.25 mm diameter) were loaded with the test solution (2.4% w/w Tracer in distilled water) at concentrations calculated in pure spinosad ranging from 10^−1 mg/10 μl to 10^−4 mg/10 μl. Control discs were loaded with only the vehicle. After 24 hours of exposure to the test solution, the zone of inhibition, i.e. the area around the disc devoid of marine bacterial growth was measured by determining the distance from the edge of the disc to the edge of the area showing no bacterial growth (mm).
# [3] = test system: Aeromonas sp (Ae); test: as above; format: cell-based; conditions: isolate Ae1, 24 hours
# Description: as §1, §2, §3
# [4] = test system: Flavobacterium sp (F); test: as above; format: cell-based; conditions: 24 hours
# Description: as §1, §2, §3
# [5] = test system: Alcaligenes sp (Al); test: as above; format: cell-based; conditions: 24 hours
# Description: as §1, §2, §3
# [6] = test system: barnacle cyprids (Balanus amphitrite Darwin); test: Barnacle cyprid settlement assay and EC50 determination; format: in vivo; conditions: for % of set: dishes a, b, c and Total (mean), control mean 78
# Excerpt: The barnacle, Balanus amphitrite Darwin, is the most ubiquitous hard fouling organism found in all marine ecosystems, particularly in ports visited by commercial shipping. The methods used in this evaluation have been described in detail in a number of publications (Rittschof D, Clare A S, Gerhart D J, Avelin Mary, Bonavetura J (1991) Barnacle in vitro assays for biologically active substances: toxicity and settlement assays using mass cultured Balanus amphitrite amphitrite Darwin. Biofouling 6:115-122.
# The barnacle adults are cultured in the laboratory and allowed to spawn naturally. The larvae are harvested and grown in artificial culture systems until they reach the cyprid stage at which time the larvae become competent to attach to surfaces. Once attached, the cyprids transform into a pinhead barnacle, thus becoming permanently attached to the surface.
# The sample solution tested was a 23.2% w/w solution of Tracer in distilled water (equivalent to 10% w/w in pure spinosad or 100 mg spinosad/ml). The sample was stirred prior to making serial dilutions.
# The data are summarized in the Tables 2 and 3 below along with the calculations for the EC50. […] Thereafter, there was dose dependent attachment from 10^−5 and at lower concentrations, only reaching control values at […]. The EC50 calculation via probit analysis show an EC50 of 7×10^−8 mg/ml.
# Additional notes to the data below: 1. Set means the total number of cyprid larvae that have settled and attached on the surface of the petri dish. 2. Non-Set means the total number of cyprids that remain swimming in the seawater and not settled on the surface. 3. Data are expressed as the percentage of cyprids that settled on the surface. 4. Data are summarized and the mean, standard deviation (SD) and the standard error of the mean (SE) are calculated for samples. 5. Tests were conducted in replicates of three dishes per study group; each dish containing anywhere from 75 to 100 cyprids.
substance,measurement,setting,value
spinosad,growth of Dunaliella tertiolecta (FIG. 1),[1],significant microalgae inhibitory properties which are dose dependent
same,zone of inhibition,"[2]; isolate V1, 10^−1 mg/10 μl (10000 ppm spinosad)",8 mm
same,zone of inhibition,"[2]; isolate V1, 10^−2 mg/10 μl (1000 ppm spinosad)",5.5 mm
same,zone of inhibition,"[2]; isolate V1, 10^−3 mg/10 μl (100 ppm spinosad)",5.5 mm
same,zone of inhibition,"[2]; isolate V1, 10^−4 mg/10 μl (10 ppm spinosad)",5.5 mm
same,zone of inhibition,"[2]; isolate V2, 10^−1 mg/10 μl (10000 ppm spinosad)",8 mm
same,zone of inhibition,"[2]; isolate V2, 10^−2 mg/10 μl (1000 ppm spinosad)",7 mm
same,zone of inhibition,"[2]; isolate V2, 10^−3 mg/10 μl (100 ppm spinosad)",6 mm
same,zone of inhibition,"[2]; isolate V2, 10^−4 mg/10 μl (10 ppm spinosad)",6 mm
same,zone of inhibition,[3]; 10^−1 mg/10 μl (10000 ppm spinosad),7.5 mm
same,zone of inhibition,[3]; 10^−2 mg/10 μl (1000 ppm spinosad),7 mm
same,zone of inhibition,[3]; 10^−3 mg/10 μl (100 ppm spinosad),7 mm
same,zone of inhibition,[3]; 10^−4 mg/10 μl (10 ppm spinosad),5.5 mm
same,zone of inhibition,"[4]; isolate F1, 10^−1 mg/10 μl (10000 ppm spinosad)",7.5 mm
same,zone of inhibition,"[4]; isolate F1, 10^−2 mg/10 μl (1000 ppm spinosad)",6 mm
same,zone of inhibition,"[4]; isolate F1, 10^−3 mg/10 μl (100 ppm spinosad)",6 mm
same,zone of inhibition,"[4]; isolate F1, 10^−4 mg/10 μl (10 ppm spinosad)",6 mm
same,zone of inhibition,"[4]; isolate F2, 10^−1 mg/10 μl (10000 ppm spinosad)",7.5 mm
same,zone of inhibition,"[4]; isolate F2, 10^−2 mg/10 μl (1000 ppm spinosad)",6 mm
same,zone of inhibition,"[4]; isolate F2, 10^−3 mg/10 μl (100 ppm spinosad)",6 mm
same,zone of inhibition,"[4]; isolate F2, 10^−4 mg/10 μl (10 ppm spinosad)",6 mm
same,zone of inhibition,"[5]; isolate Al1, 10^−1 mg/10 μl (10000 ppm spinosad)",8 mm
same,zone of inhibition,"[5]; isolate Al1, 10^−2 mg/10 μl (1000 ppm spinosad)",6 mm
same,zone of inhibition,"[5]; isolate Al1, 10^−3 mg/10 μl (100 ppm spinosad)",6 mm
same,zone of inhibition,"[5]; isolate Al1, 10^−4 mg/10 μl (10 ppm spinosad)",6 mm
same,zone of inhibition,"[5]; isolate Al2, 10^−1 mg/10 μl (10000 ppm spinosad)",7 mm
same,zone of inhibition,"[5]; isolate Al2, 10^−2 mg/10 μl (1000 ppm spinosad)",6.5 mm
same,zone of inhibition,"[5]; isolate Al2, 10^−3 mg/10 μl (100 ppm spinosad)",5.5 mm
same,zone of inhibition,"[5]; isolate Al2, 10^−4 mg/10 μl (10 ppm spinosad)",5.5 mm
same,% of set,[6]; 0.1 mg spinosad/ml,0%
same,% of set,[6]; 10−^2 mg spinosad/ml,0%
same,% of set,[6]; 10−^3 mg spinosad/ml,0%
same,% of set,[6]; 10−^4 mg spinosad/ml,0%
same,% of set,[6]; 10−^5 mg spinosad/ml,7% and 9% and 12%
same,% of set,[6]; 10−^7 mg spinosad/ml,31% and 34% and 42%
same,% of set,[6]; 10−^8 mg spinosad/ml,52% and 57% and 50%
same,% of set,[6]; 10−^9 mg spinosad/ml,63% and 61% and 70%
same,% of set,[6]; 10−^10 mg spinosad/ml,77% and 78% and 71%
same,% of set,[6]; 10−^11 mg spinosad/ml,77% and 79% and 72%
same,mortality of cyprids,[6]; all concentrations tested,absence of any mortality; also recorded: no mortality seen at all concentrations tested
same,cyprid settlement,[6]; from 10^−1 to 10^−4 mg/ml,no cyprid settlement
same,mortality of cyprids,[6]; highest concentration used (0.1 mg spinosad/ml),no mortality was observed
same,EC50 on the settlement of barnacle cyprids,[6]; probit analysis,0.07 ng/mL
